From US20140039044A1, “Hydroxylated Polymethoxyflavone Compositions” (WLLGEN, INC., priority 2006, published 2014)

Columns and labels:
COLO205 cells = test: Apoptotic ratio by propidium iodide flow cytometry (AC50); type: cell-based, human; details: Homo sapiens, COLO 205, read-out: Apoptosis-inducing AC50
In short: (§1)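 AC50 denotes the concentration that induces 50% apoptosis. It was derived from propidium iodide–DNA fluorescence measured by flow cytometry after ethanol fixation and RNase treatment. Cells were seeded at 2×10^5, grown 24 h, then exposed to test compounds for 24 h.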

AGS cells = test: as above; type: cell-based, human; details: Homo sapiens, AGS, read-out: Apoptosis-inducing AC50
In short: as §1

HL-60 cells [1] = test: as above; type: cell-based, human; details: Homo sapiens, HL-60, read-out: Apoptosis-inducing AC50
In short: as §1

HT-29 cells [2] = test: as above; type: cell-based, human; details: Homo sapiens, read-out: Apoptosis-inducing AC50
In short: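 HT-29 cells (2×10^5) were treated with compound for 24 h, then fixed in ice-cold ethanol overnight and treated with Triton X-100/RNase at 37 °C for 30 min. They were stained with propidium iodide (50 μg/mL solution) on ice for 30 min. The apoptotic fraction was measured from PI-DNA fluorescence by flow cytometry, and AC50 was reported.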

HL-60 cells [3] = test: Cell cycle distribution by flow cytometry; type: cell-based, human; details: 24 h; for Cell Cycle Distribution G0/G1 / Cell Cycle Distribution G2/M / Cell Cycle Distribution S: Table 10
In short: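 HL-60 cells were treated for 24 h with compound at 5, 10, 25, 50 or 100 μM, or with DMSO. Cells were then ethanol-fixed, treated with Triton X-100/RNase and stained with propidium iodide. DNA content was measured by flow cytometry to give cell-cycle phase distribution.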

HT-29 cells [4] = test: Cell cycle distribution by flow cytometry; type: cell-based, human; details: for Cell Cycle Distribution G0/G1 / Cell Cycle Distribution G2/M / Cell Cycle Distribution S: 24 h
In short: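 Cells were treated 24 h with compound at 5, 10, 25, 50 or 100 μM, or with DMSO. They were then ethanol-fixed, RNase-treated and stained with propidium iodide. DNA content was measured by FACScan flow cytometry to give cell-cycle phase distribution.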

[5] = system: LPS-induced nitrite production in RAW 264.7 macrophages; test: Nitrite assay (Griess reaction); type: cell-based, mouse; details: 100 ng/ml LPS, PMF 30 μM, 24 h, FIG. 3
Protocol: Compounds or compositions were tested for anti-inflammatory effects by monitoring nitrite production in LPS-activated RAW264.7 cells. After treating the cells with LPS or LPS and test substance, supernatants were harvested and the amount of nitrite, an indicator of NO synthesis, was measured by use of the Griess reaction. Briefly, supernatants (100 μl) were mixed with the same volume of Griess reagent (1% sulphanilamide in 5% phosphoric acid and 0.1% naphthylethylenediamine dihydrochloride in water) in duplicate on 96-well plates. After incubation at room temperature for 10 min, absorbance at 570 nm was measured with a ELISA reader (Thermo Labsystems Multiskan Ascent, Finland).
The anti-inflammatory effects of compounds A-K were tested by measuring nitrite production in LPS-activated RAW 264.7 macrophages, as described in Section 8.4 above. Macrophages were treated with 100 ng/ml LPS alone or LPS and PMF (10 or 30 μM) for 24 h. At the end of incubation time, 100 μl of the culture medium was collected for the nitrite assay.

COc1c(OC)c(OC)c2c(=O)cc(-c3ccc(O)c(O)c3)oc2c1OC [H, 3′,4′-dihydroxy-5,6,7,8-tetramethoxyflavone]
AC50 (COLO205 cells): > 100 µM | AC50 (AGS cells): > 100 µM | AC50 (HL-60 cells [1]): > 100 µM | AC50 (HT-29 cells [2]): > 100 µM | Cell Cycle Distribution G0/G1 (HL-60 cells [3]; 5 μM): 49.78 ± 1.80 | Cell Cycle Distribution G2/M (HL-60 cells [3]; 5 μM): 4.37 ± 5.00 | Cell Cycle Distribution S (HL-60 cells [3]; 5 μM): 45.85 ± 6.80 | Cell Cycle Distribution G0/G1 (HL-60 cells [3]; 10 μM): 49.29 ± 1.53 | Cell Cycle Distribution G2/M (HL-60 cells [3]; 10 μM): 2.76 ± 3.90 | Cell Cycle Distribution S (HL-60 cells [3]; 10 μM): 47.95 ± 5.43 | Cell Cycle Distribution G0/G1 (HL-60 cells [3]; 25 μM): 52.82 ± 0.15 | Cell Cycle Distribution G2/M (HL-60 cells [3]; 25 μM): 5.49 ± 1.11 | Cell Cycle Distribution S (HL-60 cells [3]; 25 μM): 41.68 ± 0.93 | Cell Cycle Distribution G0/G1 (HL-60 cells [3]; 50 μM): 62.04 ± 1.19 | Cell Cycle Distribution G2/M (HL-60 cells [3]; 50 μM): 10.70 ± 0.89 | Cell Cycle Distribution S (HL-60 cells [3]; 50 μM): 27.27 ± 0.31 | Cell Cycle Distribution G0/G1 (HL-60 cells [3]; 100 μM): 61.15 ± 7.03 | Cell Cycle Distribution G2/M (HL-60 cells [3]; 100 μM): 25.94 ± 8.32 | Cell Cycle Distribution S (HL-60 cells [3]; 100 μM): 12.91 ± 15.34 | Cell cycle arrest, in words (HL-60 cells [3]; 25-100 μM): significant G1 arrest | Cell Cycle Distribution G0/G1 (HT-29 cells [4]; 5 μM): 63.21 ± 1.82 | Cell Cycle Distribution G2/M (HT-29 cells [4]; 5 μM): 7.53 ± 0.81 | Cell Cycle Distribution S (HT-29 cells [4]; 5 μM): 29.26 ± 2.63 | Cell Cycle Distribution G0/G1 (HT-29 cells [4]; 10 μM): 64.87 ± 0.74 | Cell Cycle Distribution G2/M (HT-29 cells [4]; 10 μM): 8.19 ± 0.09 | Cell Cycle Distribution S (HT-29 cells [4]; 10 μM): 26.95 ± 0.64 | Cell Cycle Distribution G0/G1 (HT-29 cells [4]; 25 μM): 63.87 ± 0.92 | Cell Cycle Distribution G2/M (HT-29 cells [4]; 25 μM): 8.45 ± 0.46 | Cell Cycle Distribution S (HT-29 cells [4]; 25 μM): 27.68 ± 1.37 | Cell Cycle Distribution G0/G1 (HT-29 cells [4]; 50 μM): 63.10 ± 0.16 | Cell Cycle Distribution G2/M (HT-29 cells [4]; 50 μM): 7.94 ± 0.84 | Cell Cycle Distribution S (HT-29 cells [4]; 50 μM): 28.98 ± 0.69 | Cell Cycle Distribution G0/G1 (HT-29 cells [4]; 100 μM): 61.66 ± 1.44 | Cell Cycle Distribution G2/M (HT-29 cells [4]; 100 μM): 4.98 ± 1.55 | Cell Cycle Distribution S (HT-29 cells [4]; 100 μM): 33.37 ± 0.11 | Rank of inhibitory potency on LPS-induced nitrite production [5]: H>G>K>C>I>B

COc1ccc(-c2cc(=O)c3c(OC)c(OC)c(OC)c(OC)c3o2)cc1O [I, 3′-hydroxy-5,6,7,8,4′-pentamethoxyflavone]
AC50 (COLO205 cells): > 100 µM | AC50 (AGS cells): > 100 µM | AC50 (HL-60 cells [1]): 94.6 ± 1.5 µM | AC50 (HT-29 cells [2]): > 100 µM | Cell Cycle Distribution G0/G1 (HL-60 cells [3]; 5 μM): 44.51 ± 2.37 | Cell Cycle Distribution G2/M (HL-60 cells [3]; 5 μM): 9.23 ± 0.16 | Cell Cycle Distribution S (HL-60 cells [3]; 5 μM): 46.27 ± 2.21 | Cell Cycle Distribution G0/G1 (HL-60 cells [3]; 10 μM): 43.22 ± 1.85 | Cell Cycle Distribution G2/M (HL-60 cells [3]; 10 μM): 11.92 ± 0.64 | Cell Cycle Distribution S (HL-60 cells [3]; 10 μM): 44.86 ± 2.49 | Cell Cycle Distribution G0/G1 (HL-60 cells [3]; 25 μM): 50.55 ± 0.97 | Cell Cycle Distribution G2/M (HL-60 cells [3]; 25 μM): 10.75 ± 0.41 | Cell Cycle Distribution S (HL-60 cells [3]; 25 μM): 38.71 ± 1.38 | Cell Cycle Distribution G0/G1 (HL-60 cells [3]; 50 μM): 50.23 ± 1.94 | Cell Cycle Distribution G2/M (HL-60 cells [3]; 50 μM): 6.36 ± 1.69 | Cell Cycle Distribution S (HL-60 cells [3]; 50 μM): 43.41 ± 3.62 | Cell Cycle Distribution G0/G1 (HL-60 cells [3]; 100 μM): 65.54 ± 4.07 | Cell Cycle Distribution G2/M (HL-60 cells [3]; 100 μM): 13.24 ± 11.61 | Cell Cycle Distribution S (HL-60 cells [3]; 100 μM): 21.31 ± 15.55 | Cell Cycle Distribution G0/G1 (HT-29 cells [4]; 5 μM): 60.78 ± 1.52 | Cell Cycle Distribution G2/M (HT-29 cells [4]; 5 μM): 7.95 ± 0.71 | Cell Cycle Distribution S (HT-29 cells [4]; 5 μM): 31.28 ± 0.81 | Cell Cycle Distribution G0/G1 (HT-29 cells [4]; 10 μM): 61.09 ± 1.06 | Cell Cycle Distribution G2/M (HT-29 cells [4]; 10 μM): 7.89 ± 0.23 | Cell Cycle Distribution S (HT-29 cells [4]; 10 μM): 31.02 ± 1.30 | Cell Cycle Distribution G0/G1 (HT-29 cells [4]; 25 μM): 60.90 ± 0.87 | Cell Cycle Distribution G2/M (HT-29 cells [4]; 25 μM): 7.48 ± 0.64 | Cell Cycle Distribution S (HT-29 cells [4]; 25 μM): 31.63 ± 0.23 | Cell Cycle Distribution G0/G1 (HT-29 cells [4]; 50 μM): 66.36 ± 0.88 | Cell Cycle Distribution G2/M (HT-29 cells [4]; 50 μM): 9.83 ± 0.61 | Cell Cycle Distribution S (HT-29 cells [4]; 50 μM): 23.81 ± 0.28 | Cell Cycle Distribution G0/G1 (HT-29 cells [4]; 100 μM): 74.18 ± 2.33 | Cell Cycle Distribution G2/M (HT-29 cells [4]; 100 μM): 0.37 ± 0.40 | Cell Cycle Distribution S (HT-29 cells [4]; 100 μM): 25.45 ± 2.72 | Cell cycle arrest, in words (HT-29 cells [4]; 5-100 μM, 24 h exposure): significant accumulation of cells in G1 phase | Rank of inhibitory potency on LPS-induced nitrite production [5]: H>G>K>C>I>B
